Laboratory results reported in patent US10842868B2 (priority 2012, dated 2020).

Key:
[1] = type: physicochemical; conditions: K2 10, 50, 250 or 500 μg/ml; Al—H 3 mg/ml; all strengths
Description: Compound K2 is added to water at 4mg/ml, then 1M NaOH is added to ensure full solubilisation, with stirring for 15 minutes at room temperature. This material is added to a suspension of aluminium hydroxide adjuvant (Al—H) to give the desired final concentration. This mixture is shaken for 2 hours at ambient temperature to ensure full adsorption, and then histidine buffer components are added (10mM histidine buffer, pH 6.5).
Four different mixtures are prepared, giving a final K2 concentration of 10, 50, 250 or 500 μg/ml (to provide a 1, 5, 25 or 50 μg dose of K2 in a 100 μl dosage volume); the Al—H concentration is always 3 mg/ml. At all strengths >95% of compound K2 is adsorbed to the Al—H. The adsorbed adjuvant is referred to hereafter as “Al—H/K2”.

DT, TT, PT, FHA and 69K = type: physicochemical

## Cc1cc(OCCOCCOCCP(=O)(O)O)ccc1CCc1cnc2c(N)nc3cc(CCC(=O)O)ccc3c2c1 [K2, 3-(5-amino-2-(2-methyl-4-(2-(2-(2-phosphonoethoxy)ethoxy)ethoxy)phenethyl)benzo [f]-[1,7]naphthyridin-8-yl)propanoic acid]
[1]
  compound K2 adsorbed to the Al—H: > 95%
DT, TT, PT, FHA and 69K
  adsorption of all antigens: completely adsorbed
